{"source": "patent US20130031644A1", "about": "“AUTONOMOUS LUX REPORTER SYSTEM AND METHODS OF USE” (University of Tennessee Research Foundation, priority 2011, published 2013)", "key": {"[1]": {"tested_on": "tetracycline responsive lux reporter HEK293 cells (pLuxAB/pLuxCDEfrp-TET)", "assay": "Bioluminescent measurement in response to doxycycline", "assay_type": "cell-based, human", "settings": "for average total flux: 24 h period; for range of total flux over the course of the assay: after 1 h post treatment", "description": "Cell lines displaying the greatest upregulation of luxC gene transcription following treatment with 10 ng and 100 ng Doxycycline/ml were passaged into 75 cm^2 tissue culture flasks (Corning) and grown at 37° C. and 5% CO2 until they reached 90% confluence. Cells were then harvested by trypsinization and cell number was determined as the average of two counts using a hemocytometer. Approximately 1×10^6 cells per well were plated in triplicate in opaque 24-well tissue culture plates (Costar) in DMEM without phenol red and supplemented with 10% fetal bovine serum, 0.01 mM non-essential amino acids, and 0.01 mM sodium pyruvate. Immediately post plating, wells were spiked with either 0, 10, 100, or 500 ng Doxycycline/ml. Photon counts were then recorded using an IVIS Lumina in vivo imaging system and analyzed with Living Image 3.0 software (Caliper Life Sciences). The change in light output over time was determined in photons (p)/sec (s) for each well by averaging the photon output over integration times of 10 min and reported with the standard error of the mean."}, "[2]": {"tested_on": "luxC gene transcription under the tetracycline response element in HEK293 cells (pLuxAB/pLuxCDEfrp-TET)", "assay": "rt-PCR of luxC transcription in response to doxycycline", "assay_type": "cell-based, human", "settings": "for average CT value for luxC detection: 24 h, average of eleven cell lines; for increase in luxC transcription / reduction of cycles to reach CT: best performing cell line", "description": "Twenty-four h post-transfection, the medium was removed and replaced with complete medium supplemented with the appropriate antibiotic. Selection of successfully transfected clones was performed by refreshing selective medium every 4-5 d until all untransfected cells had died. At this time, colonies of transfected cells were removed by scraping, transferred to individual 25 cm^2 cell culture flasks, and grown in complete medium supplemented with the appropriate antibiotics. To screen the resulting cell lines for the ability to regulate luxC transcription in response to doxycycline, relative reverse transcription PCR (rt-PCR) was used to determine the level of luxC mRNA present 24 h following the addition of 0, 10, or 100 ng doxycycline/ml to the complete growth medium. To this end, each isolated cell line was split into 4 25 cm^2 cell culture flasks upon reaching 80% confluence. Cells were then grown at 37° C. and 5% CO2 until again reaching ˜80% confluence. At this point, one of the flasks was routinely passaged to maintain a stock of cells for future use. The remaining 3 flasks were spiked with 0, 10, or 100 ng doxycycline/ml and returned to the incubator. Twenty-four h post doxycycline addition, cells were harvested and total RNA was isolated using an RNeasy isolation kit (Qiagen). Isolated RNA was used directly for rt-PCR analysis, and cell lines displaying the greatest range in luxC transcription between 0 ng Doxycycline/ml treatment and either 10 ng or 100 ng doxycycline/ml treatment were selected for bioluminescent screening."}, "[3]": {"molecular_target": "T1, bacterial luciferase (lux) in protein extracts of HEK293 cells (Photorhabdus luminescens, UniProt P19839)", "T1 construct": "expressed in transfected cells; host or cells: HEK293 cells stably carrying pLuxAB (luxA-IRES-luxB, CMV promoter), co-transfected with pLuxCDEfrp:WT or pLuxCDEfrp:CO; The soluble protein extract was made by freeze/thaw", "T1 sequence (P19839 1-360)": "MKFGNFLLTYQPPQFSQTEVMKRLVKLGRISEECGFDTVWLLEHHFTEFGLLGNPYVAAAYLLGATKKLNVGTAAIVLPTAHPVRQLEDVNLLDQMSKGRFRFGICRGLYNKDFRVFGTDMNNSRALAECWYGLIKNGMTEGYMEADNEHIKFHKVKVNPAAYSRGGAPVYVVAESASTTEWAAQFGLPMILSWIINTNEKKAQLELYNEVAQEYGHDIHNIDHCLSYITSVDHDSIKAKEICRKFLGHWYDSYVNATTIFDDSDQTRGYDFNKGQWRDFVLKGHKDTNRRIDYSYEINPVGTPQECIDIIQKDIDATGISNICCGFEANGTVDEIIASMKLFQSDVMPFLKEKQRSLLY", "T1 sequence (P19840 1-327 partner)": "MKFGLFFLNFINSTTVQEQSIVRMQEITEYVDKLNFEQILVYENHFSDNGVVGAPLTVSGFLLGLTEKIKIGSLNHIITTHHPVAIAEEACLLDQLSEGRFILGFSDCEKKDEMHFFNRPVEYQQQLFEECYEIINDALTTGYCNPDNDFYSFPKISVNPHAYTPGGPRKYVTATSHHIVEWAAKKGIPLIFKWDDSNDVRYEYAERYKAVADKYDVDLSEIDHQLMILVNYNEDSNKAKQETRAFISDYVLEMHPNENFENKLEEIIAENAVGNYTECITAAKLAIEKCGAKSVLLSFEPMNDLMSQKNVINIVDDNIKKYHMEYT", "assay": "In vitro supplementation assays of lux cell extracts (oxidoreductase, aldehyde)", "assay_type": "biochemical, P. luminescens", "settings": "0.002% (w/v) n-decanal", "description": "Bioluminescence was measured using an FB 14 luminometer (Zylux) with a 1 sec integration time. To prepare the sample for in vitro bioluminescent measurement, 400 μl of the isolated protein extract was combined with 500 μl of either oxidoreductase supplemented light assay solution containing 0.1 mM NAD(P)H, 4 μM FMN, 0.2% (w/v) BSA and 1 U of oxidoreductase protein isolated from V. fischeri (Roche), or oxidoreductase deficient light assay solution (distilled water substituted for the 1 U of oxidoreductase protein). Following the initial bioluminescent reading, samples were amended with 0.002% (w/v) n-decanal and the readings were continued to determine if additional aldehyde could increase light output. All bioluminescent signals were normalized to total protein concentration as determined by BCA protein assay (Pierce) and reported as relative light units (RLU)/mg total protein. […] A 15 μl aliquot of cells was removed and counted using a hemocytometer to allow all values to be normalized to viable cell counts. […]\nTotal protein was extracted from co-transfected pLuxCDEfrp:CO/pLuxAB or pLuxCDEfrp:WT/pLuxAB cell lines or the pTa2AluxAB transfected cell line using a freeze/thaw procedure. […] Bioluminescence was measured using an FB14 luminometer (Zylux) with a 1 sec integration time. […]"}, "[4]": {"tested_on": "constitutively bioluminescent HEK293 cells expressing pLuxCDEfrp/pLuxAB", "assay": "Bioluminescent measurement in response to toxic chemical exposure (n-decanal)", "assay_type": "cell-based, human", "description": "To determine the ability of constitutively bioluminescent HEK293 cells to function as a bioreporter for toxic chemical exposure, cells stably expressing pLuxCDEfrp/pLuxAB were exposed to increasing concentrations of the cytotoxic aldehyde n-decanal. HEK293 cells previously determined to be capable of continuous bioluminescent output from the expression of the pLuxCDEfrp/pLuxAB plasmids were passaged into 75 cm^2 tissue culture flasks (Corning) and grown at 37° C. and 5% CO^2 until they reached 90% confluence. Cells were then harvested by trypsinization and cell number was determined as the average of two counts using a hemocytometer. Approximately 1×10^6 cells per well were plated in all wells in opaque 24-well tissue culture plates (Costar) in DMEM without phenol red and supplemented with 10% fetal bovine serum, 0.01 mM non-essential amino acids, and 0.01 mM sodium pyruvate. Triplicate wells were treated with serial dilutions of n-decanal ranging from 0.1% to 1×10^−5%, with a control set receiving no n-decanal amendment to determine maximal bioluminescent expression. Photon counts were then recorded using an IVIS Lumina in vivo imaging system and analyzed with Living Image 3.0 software (Caliper Life Sciences). The change in light output over time was determined in photons (p)/sec/cm^2/steridian (sr) for each well using integration times of […] once every hour for 24 h and reported as the average of three runs with the standard error of the mean."}, "[5]": {"settings": "native state, 37° C.; cited from earlier work"}}}
{"molecule": "C[C@H]1c2cccc(O)c2C(=O)C2=C(O)[C@]3(O)C(=O)C(C(N)=O)=C(O)[C@@H](N(C)C)[C@@H]3[C@@H](O)[C@@H]21", "note": "[doxycycline]", "values": [{"measurement": "average total flux", "setting": "[1]; 10 ng doxycycline/ml, not significant vs untreated (p=0.06)", "result": "11,500 (±200) p/s"}, {"measurement": "range of total flux over the course of the assay", "setting": "[1]; 10 ng doxycycline/ml", "result": "1,900 p/s"}, {"measurement": "incubation period to significant up regulation in bioluminescent output", "setting": "[1]; 100 ng doxycycline/ml", "result": 1, "unit": "h"}, {"measurement": "average total flux", "setting": "[1]; 100 ng doxycycline/ml, significant vs untreated (p=1.1×10^−5)", "result": "12,500 (±200) p/s"}, {"measurement": "range of total flux over the course of the assay", "setting": "[1]; 100 ng doxycycline/ml", "result": "1,800 p/s"}, {"measurement": "maximum measured flux", "setting": "[1]; induced with 100 ng doxycycline/ml", "result": "1.3 (±0.03)×10^4 p/s"}, {"measurement": "average CT value for luxC detection", "setting": "[2]; 10 ng doxycycline/ml", "result": "11.9 (±0.7) cycles"}, {"measurement": "average CT value for luxC detection", "setting": "[2]; 100 ng doxycycline/ml", "result": "11.5 (±0.6) cycles"}, {"measurement": "increase in luxC transcription", "setting": "[2]; 10 ng doxycycline/ml", "result": "approximately 11 fold"}, {"measurement": "reduction of cycles to reach CT", "setting": "[2]; 10 ng doxycycline/ml", "result": 3.5, "unit": "cycles"}, {"measurement": "increase in luxC transcription", "setting": "[2]; 100 ng doxycycline/ml", "result": "~20", "unit": "fold"}, {"measurement": "reduction of cycles to reach CT", "setting": "[2]; 100 ng doxycycline/ml", "result": 4.3, "unit": "cycles"}]}
{"molecule": "CCCCCCCCCC=O", "note": "[n-decanal]", "values": [{"measurement": "increase in light output", "setting": "[3]; extracts of cells with codon-optimized genes", "result": 58, "unit": "fold"}, {"measurement": "increase in light output", "setting": "[3]; extracts of cells with wild-type genes", "result": 16, "unit": "fold"}, {"measurement": "molar concentration corresponding to the 0.01% treatment", "setting": "[4]; 0.01% decanal", "result": "~640", "unit": "µM"}, {"measurement": "start of intermittent deviation in bioluminescent flux", "setting": "[4]; 0.01% decanal, post addition", "result": 40, "unit": "min"}, {"measurement": "time after addition until deleterious effects consistently observable", "setting": "[4]; 0.01% n-decanal", "result": 4, "unit": "h"}, {"measurement": "effect on bioluminescent output", "setting": "[4]; 0.1% n-decanal", "result": "reduced bioluminescent output immediately following addition"}, {"measurement": "concentration at which the aldehyde became toxic to the HEK293 cell line", "setting": "[4]; 24 h assay", "result": "≥ 0.01", "unit": "%"}, {"measurement": "effect on bioluminescent output", "setting": "[4]; remaining treatment levels (below 0.01%, down to 1×10^−5%)", "result": "could not be statistically differentiated from cells not receiving treatment"}]}
{"molecule": "firefly luciferase protein: firefly luciferase reporter protein, heat labile under whole animal imaging conditions", "values": [{"measurement": "half life", "setting": "[5]", "result": "≥ 3", "unit": "min"}]}
